Assay results taken from patent US20260157376A1, “METHOD OF CONTROLLING, LIMITING OR PREVENTING OOMYCETES” (priority 2022, published 2026).

Test system: Pythium ultimum
Assay: In vitro growth inhibition of Pythium ultimum in PDB nutrient broth, 96-well microtiter plate
Type: cell-based
Settings: 24° C., 48 hours

For `N.N.O=[PH](O)O` [Diammonium phosphonate], the “Observed efficacy (%)” value (500 ppm) was 50% and the “Observed efficacy (%)” value (1000 ppm) was 70%.

`COCC(=O)N(c1c(C)cccc1C)[C@H](C)C(=O)OC` [Mefenoxam, reference compound] was tested, and the “Observed efficacy (%)” value (0.007 ppm) was 0%, the “Observed efficacy (%)” value (0.02 ppm) was 20% and the “Observed efficacy (%)” value (0.06 ppm) was 50%.

Inpyrfluxam [reference compound] was tested, and the “Observed efficacy (%)” value (20 ppm) was 0%.

With Monopotassium phosphite the “Observed efficacy (%)” value (125 ppm) was 20%, the “Observed efficacy (%)” value (250 ppm) was 20% and the “Observed efficacy (%)” value (500 ppm) was 20%.
